Experimental data reported in patent US20220251163A1 (Sinopep-Allsino Biopharmaceutical Co., Ltd., priority 2019, published 2022).
Where two headings read alike, the source gives them in different places. Where a SMILES comes first, the peptide text is derived from it.

Assays:
[1] = target: T1, mGLP-1R (Mus musculus, UniProt O35659); assay: GLP-1R agonist activity, cAMP in transfected HEK293 cells; type: cell-based
T1 construct: expressed in transfected cells; host or cells: HEK293
T1 sequence (O35659 22-463): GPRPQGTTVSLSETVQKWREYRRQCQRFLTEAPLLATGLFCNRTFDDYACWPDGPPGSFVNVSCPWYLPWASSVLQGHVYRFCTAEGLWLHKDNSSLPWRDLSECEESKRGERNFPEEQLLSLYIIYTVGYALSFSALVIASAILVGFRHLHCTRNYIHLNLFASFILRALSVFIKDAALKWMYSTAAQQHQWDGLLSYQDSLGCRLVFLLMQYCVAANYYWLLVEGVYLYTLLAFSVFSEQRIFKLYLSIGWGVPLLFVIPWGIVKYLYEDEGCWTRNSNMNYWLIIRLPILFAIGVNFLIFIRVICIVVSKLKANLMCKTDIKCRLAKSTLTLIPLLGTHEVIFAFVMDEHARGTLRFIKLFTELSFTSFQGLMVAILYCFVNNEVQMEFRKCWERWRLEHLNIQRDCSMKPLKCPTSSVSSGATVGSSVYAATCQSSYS

[2] = target: T2, mGIPR (Mus musculus, UniProt Q0P543); assay: GIPR agonist activity, cAMP in transfected HEK293 cells; type: cell-based
T2 construct: expressed in transfected cells; host or cells: HEK293
T2 sequence (Q0P543 19-460): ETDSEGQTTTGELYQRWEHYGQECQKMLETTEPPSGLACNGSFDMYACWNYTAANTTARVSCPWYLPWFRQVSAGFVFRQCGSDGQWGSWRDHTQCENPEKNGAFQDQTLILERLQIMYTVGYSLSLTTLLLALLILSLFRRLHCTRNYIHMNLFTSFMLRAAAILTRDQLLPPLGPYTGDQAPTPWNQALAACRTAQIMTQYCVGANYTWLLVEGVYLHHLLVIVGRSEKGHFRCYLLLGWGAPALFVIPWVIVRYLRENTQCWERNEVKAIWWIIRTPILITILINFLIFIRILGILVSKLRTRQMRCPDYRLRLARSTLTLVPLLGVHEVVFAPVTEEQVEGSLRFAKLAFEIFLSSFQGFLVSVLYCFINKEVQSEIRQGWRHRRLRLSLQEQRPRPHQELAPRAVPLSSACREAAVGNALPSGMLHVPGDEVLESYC
Description: HEK293 cells were co-transfected with cDNA encoding GLP-1R or GIPR. In a test for determining the compound, the cells were inoculated in a 96-well plate 2 h in advance, the polypeptide compound was dissolved with DMSO, and diluted to different multiples with a culture medium containing 0.1% bovine serum albumin and added to the co-transfected cells.

[3] = HEK293 cells transfected with GLP-1R, cAMP, 20 min incubation, read-out: mGLP-1R EC50
[4] = HEK293 cells transfected with GIPR, cAMP, 20 min incubation, read-out: mGIPR EC50

SMILES	EC50 [1, 3] [pM]	EC50 [2, 4] [pM]	EC50 [1] [pM]	EC50 [2] [pM]
CCCCCCCCCCCCCCCC(=O)N[C@@H](CCC(=O)NCCCC[C@H](NC(=O)[C@H](CCC(N)=O)NC(=O)[C@H](C)NC(=O)[C@@H](NC(=O)[C@H](CCCCN)NC(=O)[C@H](CC(=O)O)NC(=O)[C@H](CC(C)C)NC(=O)C(C)(C)NC(=O)[C@@H](NC(=O)[C@H](CO)NC(=O)[C@H](Cc1ccc(O)cc1)NC(=O)[C@H](CC(=O)O)NC(=O)[C@H](CO)NC(=O)[C@@H](NC(=O)[C@H](Cc1ccccc1)NC(=O)[C@@H](NC(=O)CNC(=O)[C@H](CCC(=O)O)NC(=O)C(C)(C)NC(=O)[C@@H](N)Cc1ccc(O)cc1)[C@@H](C)O)[C@@H](C)O)[C@@H](C)CC)[C@@H](C)CC)C(=O)N[C@@H](C)C(=O)N[C@@H](Cc1ccccc1)C(=O)N[C@H](C(=O)N[C@@H](CCC(N)=O)C(=O)N[C@@H](Cc1c[nH]c2ccccc12)C(=O)N[C@@H](CC(C)C)C(=O)N[C@H](C(=O)N[C@@H](C)C(=O)NCC(=O)NCC(=O)N1CCC[C@H]1C(=O)N[C@@H](CO)C(=O)N[C@@H](CO)C(=O)NCC(=O)N[C@@H](C)C(=O)N1CCC[C@H]1C(=O)N1CCC[C@H]1C(=O)N1CCC[C@H]1C(=O)N[C@@H](CO)C(N)=O)[C@@H](C)CC)C(C)C)C(=O)O [ID NO: 11]	24.3	6.32	–	–
CC[C@H](C)[C@H](NC(=O)[C@H](CC(C)C)NC(=O)[C@H](Cc1c[nH]c2ccccc12)NC(=O)[C@H](CCC(N)=O)NC(=O)[C@@H](NC(=O)[C@H](Cc1ccccc1)NC(=O)[C@H](C)NC(=O)[C@H](CCCCNC(=O)COCCOCCNC(=O)COCCOCCNC(=O)CC[C@H](NC(=O)CCCCCCCCCCCCCCCCC(=O)O)C(=O)O)NC(=O)[C@H](CCC(N)=O)NC(=O)[C@H](C)NC(=O)[C@@H](NC(=O)[C@H](CCCCN)NC(=O)[C@H](CC(=O)O)NC(=O)[C@H](CC(C)C)NC(=O)C(C)(C)NC(=O)[C@@H](NC(=O)[C@H](CO)NC(=O)[C@H](Cc1ccc(O)cc1)NC(=O)[C@H](CC(=O)O)NC(=O)[C@H](CO)NC(=O)[C@@H](NC(=O)[C@H](Cc1ccccc1)NC(=O)[C@@H](NC(=O)CNC(=O)[C@H](CCC(=O)O)NC(=O)C1(NC(=O)[C@@H](N)Cc2ccc(O)cc2)CCCC1)[C@@H](C)O)[C@@H](C)O)[C@@H](C)CC)[C@@H](C)CC)C(C)C)C(=O)N[C@@H](C)C(=O)NCC(=O)NCC(=O)N1CCC[C@H]1C(=O)N[C@@H](CO)C(=O)N[C@@H](CO)C(=O)NCC(=O)N[C@@H](C)C(=O)N1CCC[C@H]1C(=O)N1CCC[C@H]1C(=O)N1CCC[C@H]1C(=O)N[C@@H](CO)C(N)=O [ID NO: 9]	–	–	9.41	6.98
CCCCCCCCCCCCCCCC(=O)N[C@@H](CCC(=O)NCCCC[C@H](NC(=O)[C@H](CCC(N)=O)NC(=O)[C@H](C)NC(=O)[C@@H](NC(=O)[C@H](CCCCN)NC(=O)[C@H](CC(=O)O)NC(=O)[C@H](CC(C)C)NC(=O)C(C)(C)NC(=O)[C@@H](NC(=O)[C@H](CO)NC(=O)[C@H](Cc1ccc(O)cc1)NC(=O)[C@H](CC(=O)O)NC(=O)[C@H](CO)NC(=O)[C@@H](NC(=O)[C@H](Cc1ccccc1)NC(=O)[C@@H](NC(=O)CNC(=O)[C@H](CCC(=O)O)NC(=O)C1(NC(=O)[C@@H](N)Cc2ccc(O)cc2)CCC1)[C@@H](C)O)[C@@H](C)O)[C@@H](C)CC)[C@@H](C)CC)C(=O)N[C@@H](C)C(=O)N[C@@H](Cc1ccccc1)C(=O)N[C@H](C(=O)N[C@@H](CCC(N)=O)C(=O)N[C@@H](Cc1c[nH]c2ccccc12)C(=O)N[C@@H](CC(C)C)C(=O)N[C@H](C(=O)N[C@@H](C)C(=O)NCC(=O)NCC(=O)N1CCC[C@H]1C(=O)N[C@@H](CO)C(=O)N[C@@H](CO)C(=O)NCC(=O)N[C@@H](C)C(=O)N1CCC[C@H]1C(=O)N1CCC[C@H]1C(=O)N1CCC[C@H]1C(=O)N[C@@H](CO)C(N)=O)[C@@H](C)CC)C(C)C)C(=O)O [ID NO: 18]	9.02	8.33	–	–
CCCCCCCCCCCCCCCC(=O)N[C@@H](CCC(=O)NCCCC[C@H](NC(=O)[C@H](CCC(N)=O)NC(=O)[C@H](C)NC(=O)[C@@H](NC(=O)[C@H](CCCCN)NC(=O)[C@H](CC(=O)O)NC(=O)[C@H](CC(C)C)NC(=O)[C@@H](NC(=O)[C@@H](NC(=O)[C@H](CO)NC(=O)[C@H](Cc1ccc(O)cc1)NC(=O)[C@H](CC(=O)O)NC(=O)[C@H](CO)NC(=O)[C@@H](NC(=O)[C@H](Cc1ccccc1)NC(=O)[C@@H](NC(=O)CNC(=O)[C@H](CCC(=O)O)NC(=O)[C@@H](NC(=O)[C@@H](N)Cc1ccc(O)cc1)C(C)C)[C@@H](C)O)[C@@H](C)O)[C@@H](C)CC)C(C)C)[C@@H](C)CC)C(=O)N[C@@H](C)C(=O)N[C@@H](Cc1ccccc1)C(=O)N[C@H](C(=O)N[C@@H](CCC(N)=O)C(=O)N[C@@H](Cc1c[nH]c2ccccc12)C(=O)N[C@@H](CC(C)C)C(=O)N[C@H](C(=O)N[C@@H](C)C(=O)NCC(=O)NCC(=O)N1CCC[C@H]1C(=O)N[C@@H](CO)C(=O)N[C@@H](CO)C(=O)NCC(=O)N[C@@H](C)C(=O)N1CCC[C@H]1C(=O)N1CCC[C@H]1C(=O)N1CCC[C@H]1C(=O)N[C@@H](CO)C(N)=O)[C@@H](C)CC)C(C)C)C(=O)O [ID NO: 12] (HELM PEPTIDE1{Y.V.E.G.T.F.T.S.D.Y.S.I.V.L.D.K.I.A.Q.K.A.F.V.Q.W.L.I.A.G.G.P.S.S.G.A.P.P.P.S.[am]}|PEPTIDE2{[CCCCCCCCCCCCCCCC(=O)[*:2]].[gGlu]}$PEPTIDE1,PEPTIDE2,20:R3-2:R2$$$V2.0)	56.1	8.79	–	–
CC[C@H](C)[C@H](NC(=O)[C@H](CC(C)C)NC(=O)[C@H](Cc1c[nH]c2ccccc12)NC(=O)[C@H](CCC(N)=O)NC(=O)[C@@H](NC(=O)[C@H](Cc1ccccc1)NC(=O)[C@H](C)NC(=O)[C@H](CCCCNC(=O)COCCOCCNC(=O)COCCOCCNC(=O)CC[C@H](NC(=O)CCCCCCCCCCCCCCCCC(=O)O)C(=O)O)NC(=O)[C@H](CCC(N)=O)NC(=O)[C@H](C)NC(=O)[C@@H](NC(=O)[C@H](CCCCN)NC(=O)[C@H](CC(=O)O)NC(=O)[C@H](CC(C)C)NC(=O)C(C)(C)NC(=O)[C@@H](NC(=O)[C@H](CO)NC(=O)[C@H](Cc1ccc(O)cc1)NC(=O)[C@H](CC(=O)O)NC(=O)[C@H](CO)NC(=O)[C@@H](NC(=O)[C@H](Cc1ccccc1)NC(=O)[C@@H](NC(=O)CNC(=O)[C@H](CCC(=O)O)NC(=O)C1(NC(=O)[C@@H](N)Cc2ccc(O)cc2)CCC1)[C@@H](C)O)[C@@H](C)O)[C@@H](C)CC)[C@@H](C)CC)C(C)C)C(=O)N[C@@H](C)C(=O)NCC(=O)NCC(=O)N1CCC[C@H]1C(=O)N[C@@H](CO)C(=O)N[C@@H](CO)C(=O)NCC(=O)N[C@@H](C)C(=O)N1CCC[C@H]1C(=O)N1CCC[C@H]1C(=O)N1CCC[C@H]1C(=O)N[C@@H](CO)C(N)=O [ID NO: 7]	–	–	5.49	7.66
CCCCCCCCCCCCCCCC(=O)N[C@@H](CCC(=O)NCCCC[C@H](NC(=O)[C@H](CCC(N)=O)NC(=O)[C@H](C)NC(=O)[C@@H](NC(=O)[C@H](CCCCN)NC(=O)[C@H](CC(=O)O)NC(=O)[C@H](CC(C)C)NC(=O)C1(NC(=O)[C@@H](NC(=O)[C@H](CO)NC(=O)[C@H](Cc2ccc(O)cc2)NC(=O)[C@H](CC(=O)O)NC(=O)[C@H](CO)NC(=O)[C@@H](NC(=O)[C@H](Cc2ccccc2)NC(=O)[C@@H](NC(=O)CNC(=O)[C@H](CCC(=O)O)NC(=O)C(C)(C)NC(=O)[C@@H](N)Cc2ccc(O)cc2)[C@@H](C)O)[C@@H](C)O)[C@@H](C)CC)CCC1)[C@@H](C)CC)C(=O)N[C@@H](C)C(=O)N[C@@H](Cc1ccccc1)C(=O)N[C@H](C(=O)N[C@@H](CCC(N)=O)C(=O)N[C@@H](Cc1c[nH]c2ccccc12)C(=O)N[C@@H](CC(C)C)C(=O)N[C@H](C(=O)N[C@@H](C)C(=O)NCC(=O)NCC(=O)N1CCC[C@H]1C(=O)N[C@@H](CO)C(=O)N[C@@H](CO)C(=O)NCC(=O)N[C@@H](C)C(=O)N1CCC[C@H]1C(=O)N1CCC[C@H]1C(=O)N1CCC[C@H]1C(=O)N[C@@H](CO)C(N)=O)[C@@H](C)CC)C(C)C)C(=O)O [ID NO: 19]	11.9	7.91	–	–
CCCCCCCCCCCCCCCC(=O)N[C@@H](CCC(=O)NCCCC[C@H](NC(=O)[C@H](CCC(N)=O)NC(=O)[C@H](C)NC(=O)[C@@H](NC(=O)[C@H](CCCCN)NC(=O)[C@H](CC(=O)O)NC(=O)[C@H](CC(C)C)NC(=O)C(C)(C)NC(=O)[C@@H](NC(=O)[C@H](CO)NC(=O)[C@H](Cc1ccc(O)cc1)NC(=O)[C@H](CC(=O)O)NC(=O)[C@H](CO)NC(=O)[C@@H](NC(=O)[C@H](Cc1ccccc1)NC(=O)[C@@H](NC(=O)CNC(=O)[C@H](CCC(=O)O)NC(=O)C1(NC(=O)[C@@H](N)Cc2ccc(O)cc2)CCCC1)[C@@H](C)O)[C@@H](C)O)[C@@H](C)CC)[C@@H](C)CC)C(=O)N[C@@H](C)C(=O)N[C@@H](Cc1ccccc1)C(=O)N[C@H](C(=O)N[C@@H](CCC(N)=O)C(=O)N[C@@H](Cc1c[nH]c2ccccc12)C(=O)N[C@@H](CC(C)C)C(=O)N[C@H](C(=O)N[C@@H](C)C(=O)NCC(=O)NCC(=O)N1CCC[C@H]1C(=O)N[C@@H](CO)C(=O)N[C@@H](CO)C(=O)NCC(=O)N[C@@H](C)C(=O)N1CCC[C@H]1C(=O)N1CCC[C@H]1C(=O)N1CCC[C@H]1C(=O)N[C@@H](CO)C(N)=O)[C@@H](C)CC)C(C)C)C(=O)O [ID NO: 20]	15.9	5.91	–	–
